The structures appear in SMILES notation.

The experiment concerns tetO-CMV promoter. The experiment in a line: Luciferase activity in electroporated HeLa-16 cells treated with desferrioxamine, cobaltous chloride or 2-2′-dipyridyl. Particulars: HeLa-16 cells electroporated with pTHV, 24 hours. The class given is cell-based. On the procedure: HeLa cells were maintained in Dulbecco Modified Medium with Glutamax (Gibco) supplemented with 10% fetal calf serum. For transfection, 5×10e6 HeLa cells were electroporated with a Gene Pulser (Biorad) at 200 V, 960 microfarads in the presence of 25 μg of each plasmid, NaCl 3M in 50 microliters. For control experiments a Bluescript pBSK+ was electroporated instead of the plasmid of interest. Each suspension of cells was then split in aliquots and incubated either in medium alone or in medium supplemented with doxycycline (1 μg/ml), cobaltous chloride (100 μM), desferrioxamine (Def) (130 μM), 2-2′-dipyridyl (DP) (100 μM) or the MG132 proteasome inhibiteur (2.5 μM). For hypoxic conditions cells were placed at 37° C. in a closed chamber with 1% oxygen, 5% CO2 and 94% N2 (Air Liquide).
Electroporated cells were trypsinized and the pellet was lysed in 200 μl LB buffer (Tris Phosphate pH 7.8 25 mM, MgCl2 8 mM, dithiothreitol 1 mM, Triton×100 1%, glycerol 15%). The lysat was then centrifugated at 4° C., the supernatant was collected and luciferase activity was measured using a luminometer (Lumat LB 9501, Berthold). Results were expressed as relative luciferase activity per mg of cell lysates protein. Protein concentration determination was performed with the BCA Protein Assay Kit (Pierce).
The reporter plasmid encoded for a luciferase gene inserted downstream of a minimal CMV promoter that contains seven binding sites for the E.Coli tetracycline repressor (tetO-CMV)(20). HeLa cells were stably transfected with this vector and one clone named HeLa-16 was used in all transient transfection assays.
HeLa-16 cells were electroporated with each pTHV or pTV. After electroporation cells were split into aliquots, and exposed in parallel to 21% O2, 1% O2, 2,2′-dipyridyl (DP), desferrioxamine (Def), cobaltous chloride (Co) or MG132. Luciferase activities were measured 24 hours later and normalised as RLU (relative light unit) per mg of proteins.
Regarding `c1ccc(-c2ccccn2)nc1` [DP, 2-2′-dipyridyl], the “effectiveness of the chemical in inducing transactivation by pTHV” value is listed as “most effective”.
Take `[Cl-].[Cl-].[Co+2]` [cobalt, cobaltous chloride]: the “effectiveness of the chemical in inducing transactivation by pTHV” value is listed as “lower than with DP”.
As for `CC(=O)N(O)CCCCCNC(=O)CCC(=O)N(O)CCCCCNC(=O)CCC(=O)N(O)CCCCCN` [desferrioxamine], the entry is “lower than with DP”.

For the origin of these results see patent US20040018606A1, “Control of protein systemic delivery by hypoxia using a tet-HIF1-alpha chimeric transactivator” (priority 2002, published 2004).
